# Patent US4250094A, “1-(Aminoalkyl) substituted-6-phenyl-4H-s-triazolo[4,3-a][1,4]benzodiazepines” (priority 1979, dated 1981)
# Entries after “also recorded” stand apart in the source; their conditions may differ. Counter-ions that a name gives are not always drawn.
# Tests used:
# yohimbine = format: in vivo, mice; details: Table VII
# Method: Ten male CF mice, 18-22 g., were injected with the anti-depressant and 30 minutes later with 30 mg. of yohimbine hydrochloride (YCl) in saline solution. After two hours, the LD50 are determined.
# oxotremorine [1] = format: in vivo, mice; details: Table VII
# Method: The present compounds were tested as follows. […] The lowering of the body temperature was measured rectally with an electronic thermometer, before and 30 minutes after drug administration. After the drug administration the mice were kept at 19° C. in cages. A four degree difference between the control mice (oxotremorine alone) and the treated mice (oxotremorine and test compound) was used to indicate the antagonistic action of the test compound.
# apomorphine = details: Table VII
# oxotremorine [2] = experiment: Hypothermic tests with oxotremorine: body temperature change; format: in vivo, mice; details: for Body Temperature °F. Change From Vehicle Control After 15 Minutes / Body Temperature °F. Change From Vehicle Control After 30 Minutes / Body Temperature °F. Change From Vehicle Control After 60 Minutes / Body Temperature °F. Change From Vehicle Control After 90 Minutes: ip, 0.5 h; for antagonism of oxotremorine temperature decrease: oxotremorine 0.6 mg./kg., in words
# Description: Hypothermic tests with oxotermorine: [1-(4-pyrrolidino-2-butynyl)-2-pyrrolidinone].
# oxotremorine [3] = details: in words, cited from earlier work; for block of oxotremorine hypothermic response: mice
# nicotine = details: control (untreated) mice, nicotine salicylate 2 mg./kg.
# strychnine = format: in vivo; details: 3 mg./kg. intraperitoneally
# Method: The test consists in orally administering into groups of 6 mice the test compound, and 30 minutes later 3 mg./kg. strychnine sulfate intraperitoneally. The survivors after 4 hours reflect the activity of the compound as a muscle relaxant and antispasmodic.
# [4] = Lethality of yohimbine hydrochloride alone; format: in vivo; details: mice, 30 mg./kg., in words
# Method: After two hours, the LD50 are determined.
smiles,measurement,setting,value
"NCc1nnc2n1-c1ccc(Cl)cc1C(c1ccccc1)=NC2 [1-(Aminomethyl)-8-chloro-6-phenyl-4H-s-triazolo[4,3-a][1,4]benzodiazepine]",YO (Yohimbine test),yohimbine,35.4
same,Oxo (oxotremorine test),oxotremorine [1],29.7
"CN(C)Cc1nnc2n1-c1ccc(Cl)cc1C(c1ccccc1Cl)=NC2 [8-Chloro-1-[(dimethylamino)methyl]-6-(o-chlorophenyl)-4H-s-triazolo[4,3-a][1,4]benzodiazepine]",Ap (Apomorphine test),apomorphine,17.8
CN(C)CCC=C1c2ccccc2CCc2ccccc21 [Amitriptyline],Body Temperature °F. Change From Vehicle Control After 15 Minutes,oxotremorine [2]; 25 mg/kg,+0.7 °F.
same,Body Temperature °F. Change From Vehicle Control After 30 Minutes,oxotremorine [2]; 25 mg/kg,- 2.4 °F.
same,Body Temperature °F. Change From Vehicle Control After 60 Minutes,oxotremorine [2]; 25 mg/kg,- 5.4 °F.
same,Body Temperature °F. Change From Vehicle Control After 90 Minutes,oxotremorine [2]; 25 mg/kg,- 6.8 °F.
CC(N)Cc1ccccc1 (stereo not shown) [Amphetamine],Body Temperature °F. Change From Vehicle Control After 15 Minutes,oxotremorine [2]; 5 mg/kg,-1.5 °F.
same,Body Temperature °F. Change From Vehicle Control After 30 Minutes,oxotremorine [2]; 5 mg/kg,- 4.3 °F.
same,Body Temperature °F. Change From Vehicle Control After 60 Minutes,oxotremorine [2]; 5 mg/kg,- 4.4 °F.
same,Body Temperature °F. Change From Vehicle Control After 90 Minutes,oxotremorine [2]; 5 mg/kg,- 2.2 °F.
CN1[C@@H]2CC[C@H]1C[C@@H](OC(=O)C(CO)c1ccccc1)C2 (stereo partly shown) [Atropine],block of oxotremorine hypothermic response,oxotremorine [3],blocked
CNCCCN1c2ccccc2CCc2ccccc21 [Desipramine],Body Temperature °F. Change From Vehicle Control After 15 Minutes,oxotremorine [2]; 25 mg/kg,-3.5 °F.
same,Body Temperature °F. Change From Vehicle Control After 30 Minutes,oxotremorine [2]; 25 mg/kg,- 3.5 °F.
same,Body Temperature °F. Change From Vehicle Control After 60 Minutes,oxotremorine [2]; 25 mg/kg,- 4.1 °F.
same,Body Temperature °F. Change From Vehicle Control After 90 Minutes,oxotremorine [2]; 25 mg/kg,- 3.6 °F.
same,antagonism of oxotremorine temperature decrease,oxotremorine [2]; mice,antagonized
CN(C)CCC=C1c2ccccc2COc2ccccc21 [Doxepine],Body Temperature °F. Change From Vehicle Control After 15 Minutes,oxotremorine [2]; 25 mg/kg,-2.3 °F.
same,Body Temperature °F. Change From Vehicle Control After 30 Minutes,oxotremorine [2]; 25 mg/kg,- 7.1 °F.
same,Body Temperature °F. Change From Vehicle Control After 60 Minutes,oxotremorine [2]; 25 mg/kg,-11.0 °F.
same,Body Temperature °F. Change From Vehicle Control After 90 Minutes,oxotremorine [2]; 25 mg/kg,-12.3 °F.
same,antagonism of oxotremorine temperature decrease,oxotremorine [2]; mice,antagonized
CN(C)CCCN1c2ccccc2CCc2ccccc21 [Imipramine],block of oxotremorine hypothermic response,oxotremorine [3],blocked
same,Body Temperature °F. Change From Vehicle Control After 15 Minutes,oxotremorine [2]; 25 mg/kg,-0.4 °F.
same,Body Temperature °F. Change From Vehicle Control After 30 Minutes,oxotremorine [2]; 25 mg/kg,- 3.3 °F.
same,Body Temperature °F. Change From Vehicle Control After 60 Minutes,oxotremorine [2]; 25 mg/kg,- 5.6 °F.
same,Body Temperature °F. Change From Vehicle Control After 90 Minutes,oxotremorine [2]; 25 mg/kg,- 6.4 °F.
same,antagonism of oxotremorine temperature decrease,oxotremorine [2]; mice,antagonized
"O=C1CCCN1CC#CCN1CCCC1 [Oxotremorine, 1-(4-pyrrolidino-2-butynyl)-2-pyrrolidinone]",hypothermic response in mice,oxotremorine [3],produces hypothermic responses in mice
same,decrease of body temperature of a mouse,"oxotremorine [2]; 0.6 mg./kg., mouse kept at room temperature",about 13 ° F.
same,time of peak hypothermia after administration,oxotremorine [2]; mice,60 min
CN1CCc2cccc3c2[C@H]1Cc1ccc(O)c(O)c1-3 [apomorphine],hypothermic response in mice,oxotremorine [3],produces hypothermic responses in mice
CN1CCC[C@H]1c1cccnc1 [nicotine salicylate],effect of nicotine salicylate in control mice,nicotine,running convulsions followed by (2) tonic extensor fits; followed by (3) death
O=C1C[C@@H]2OCC=C3CN4CC[C@]56c7ccccc7N1[C@H]5[C@H]2[C@H]3C[C@H]46 [strychnine sulfate],lethality of strychnine sulfate in control mice,strychnine,routinely fatal to all the control mice
COc1cc2c(cc1OC)C1CC(=O)C(CC(C)C)CN1CC2 (stereo not shown) [tetrabenazine],hypothermic response in mice,oxotremorine [3],produces hypothermic responses in mice
COC(=O)[C@@H]1[C@H]2C[C@H]3c4[nH]c5ccccc5c4CCN3C[C@@H]2CC[C@@H]1O [yohimbine hydrochloride],lethality of yohimbine hydrochloride alone,[4],non-lethal
same,lethality of yohimbine hydrochloride alone,[4]; listed as YCl,no death; also recorded: No mice or only one mouse is killed
